From the supplement of paper PMC10307832

Compound: CC[C@@H]1C(=O)N(C)c2cnc(Nc3ccc(C(=O)NC4CCN(C)CC4)cc3OC)nc2N1C1CCCC1 [BI-2536] + COc1cc2c(Oc3ccc(NC(=O)C4(C(=O)Nc5ccc(F)cc5)CC4)cc3F)ccnc2cc1OCCCN1CCOCC1 [Foretinib] (partner 0.25 µM)
Assay: relative viability (nuclei count vs DMSO), 5 days (fraction); higher = more cells survive
Conditions: first compound 1 µM
In short: (§1)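 Lung cancer cell lines were pin-tool dosed in 1536-well plates on the day after seeding, with either a lone drug or a fixed anchor-drug dose plus five library-drug doses (not always all listed) in √10 steps. Nuclei were counted on 4× images after 5 days. Relative viability is the ratio of treated-well to vehicle-well nuclei counts, with each value a median of duplicate plates.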

Cell Line	relative viability
SK-MES-1	0.168
H3255	0.218
IA-LM	0.0439
A549	0.0231
SW 900	0.138
NCI-H661	0.309
NCI-H1299	0.242
NCI-H1563	0.552
ABC-1	0.187
NCI-H358	0.0984
NCI-H650	0.155

Compound: CC1CC(=O)N(C2=CN=C(N=C2N1C3CCCC3)NC4=C(C=C(C=C4)C(=O)NC5CCN(CC5)C)OC)C [NPK76-II-72-1] + CC1(C)CCC(c2ccc(Cl)cc2)=C(CN2CCN(c3ccc(C(=O)NS(=O)(=O)c4ccc(N[C@H](CCN5CCOCC5)CSc5ccccc5)c(S(=O)(=O)C(F)(F)F)c4)cc3)CC2)C1 [Navitoclax] (partner 0.5 µM)
Assay: as above
Conditions: first compound 0.01 µM
In short: as §1

Cell Line	relative viability
NCI-H727	0.372
NCI-H1650	1.08
EBC-1	0.35
NCI-H1703	0.961
NCI-H1993	1.05
SW 1573	1.03
NCI-H838	1.11
NCI-H520	0.927
NCI-H2126	0.82
EMC-BAC-2	1.13
NCI-H2085	1.11
Calu-6	0.879
HCC-366	1.09
NCI-H1666	0.917
NCI-H596	0.862
LK-2	0.769
NCI-H2087	0.972
SK-MES-1	1.19
H3255	0.556
IA-LM	0.752
HCC-44	0.997
A549	1.17
NCI-H1299	1.04
NCI-H1792	0.599

Same assay, conditions: first compound 0.03162 µM

Cell Line	relative viability
NCI-H727	0.397
NCI-H1650	1.12
EBC-1	0.36
NCI-H1703	1.59
NCI-H1993	0.969
SW 1573	0.973
NCI-H838	1.19
NCI-H520	1.05
NCI-H2126	0.857
EMC-BAC-2	1.17
NCI-H2085	1.12
Calu-6	0.942
HCC-366	1.11
NCI-H1666	0.858
NCI-H596	1.01
LK-2	0.83
NCI-H2087	1.02
SK-MES-1	1.34
H3255	0.494
IA-LM	1.17
HCC-44	0.969
A549	1.29
NCI-H1299	1.05
NCI-H1792	0.553

Same assay, conditions: first compound 0.1 µM

Cell Line	relative viability
NCI-H727	0.572
NCI-H1650	1.23
EBC-1	0.376
NCI-H1703	1.27
NCI-H1993	0.884
SW 1573	0.812
NCI-H838	1.19
NCI-H520	1.01
NCI-H2126	0.874
EMC-BAC-2	1.1
NCI-H2085	1.06
Calu-6	0.894
HCC-366	1.07
NCI-H1666	0.961
NCI-H596	0.828
LK-2	0.961
NCI-H2087	0.997
SK-MES-1	1.28
H3255	0.52
IA-LM	0.67
HCC-44	0.915
A549	1.22
NCI-H1299	1.01
NCI-H1792	0.606

Same assay, conditions: first compound 0.3162 µM

Cell Line	relative viability
NCI-H727	0.494
NCI-H1650	1.12
EBC-1	0.417
NCI-H1703	1.19
NCI-H1993	0.706
SW 1573	0.948
NCI-H838	1.09
NCI-H520	1.04
NCI-H2126	0.799
EMC-BAC-2	1.17
NCI-H2085	1.06
Calu-6	0.809
HCC-366	1.13
NCI-H1666	0.722
NCI-H596	0.965
LK-2	0.723
NCI-H2087	0.919
SK-MES-1	1.24
H3255	0.173
IA-LM	0.733
HCC-44	0.919
A549	1.12
NCI-H1299	1.03
NCI-H1792	0.624

Same assay, conditions: first compound 1 µM

Cell Line	relative viability
NCI-H727	0.652
NCI-H1650	1.07
EBC-1	0.485
NCI-H1703	1.38
NCI-H1993	1.01
SW 1573	0.988
NCI-H838	1.11
NCI-H520	1.03
NCI-H2126	0.881
EMC-BAC-2	1.19
NCI-H2085	1.19
Calu-6	0.889
HCC-366	0.978
NCI-H1666	1.06
NCI-H596	1.04
LK-2	0.879
NCI-H2087	1.06
SK-MES-1	1.31
H3255	0.639
IA-LM	1
HCC-44	1.11
A549	1.15
NCI-H1299	1.04
NCI-H1792	0.726
